Reference: patent publication US10301288B2, “Kinase inhibitors” (Topivert Pharma Limited, priority 2013, dated 2019)

What was measured:
[1] = target: c-Src (Homo sapiens (Human), UniProt P12931); test: c-Src enzyme inhibition (FRET); assay type: biochemical
Method: (§1) The enzyme inhibitory activities of compounds disclosed herein are determined by FRET using synthetic peptides labelled with both donor and acceptor fluorophores (Z-LYTE, Invitrogen Ltd., Paisley, UK).
(§2) The inhibitory activities of compounds of the invention against c-Src and Syk enzymes (Invitrogen), are evaluated in a similar fashion to that described hereinabove. The relevant enzyme (3000 ng/mL or 2000 ng/mL respectively, 2.5 μL) is incubated with the test compound (either 4 μg/mL, 0.4 μg/mL, 0.04 μg/mL, or 0.004 μg/mL, 2.5 μL each) for 2 hr at RT. The FRET peptides (8 μM. 2.5 μL), and appropriate ATP solutions (2.5 μL, 800 μM for c-Src, and 60 μM ATP for Syk) are then added to the enzymes/compound mixtures and incubated for 1 hr. Development reagent (protease, 5 μL) is added for 1 hr prior to detection in a fluorescence microplate reader (Varioskan® Flash, ThermoFisher Scientific).
(§3) In all cases, the site-specific protease cleaves non-phosphorylated peptide only and eliminates the FRET signal. Phosphorylation levels of each reaction are calculated using the ratio of coumarin emission (donor) over fluorescein emission (acceptor), for which high ratios indicate high phosphorylation and low ratios indicate low phosphorylation levels.

[2] = system: HT29 cells; test: (d) IL-1β-induced IL-8 release in HT29 cells; assay type: cell-based; settings: Homo sapiens, HT-29, read-out: IC50 for Inhibition of Cytokine Release, IL-8
Method: HT29 cells, a human colon adenocarcinoma cell line, are plated in a 96 well plate (24 hrs) and pre-treated with compounds at the desired concentration for 2 hours before addition of 5 ng/ml of IL-1β (Abeam) for 24 hours. Supernatants are harvested for IL-8 quantification by Sandwich ELISA (Duo-set, R&D System). The IC50 is determined from the dose response curve.

[3] = target: Syk (Homo sapiens (Human), UniProt P43405); test: Syk enzyme inhibition (FRET); assay type: biochemical
Method: as §1, §2, §3

[4] = target: GSK3α (Homo sapiens (Human), UniProt P49840); test: GSK 3α enzyme inhibition (FRET, Method 2); assay type: biochemical
Method: as §1
The inhibitory activities of compounds of the invention against the GSK 3α enzyme isoform (Invitrogen), are evaluated by determining the level of activation/phosphorylation of the target peptide. The GSK3-α protein (500 ng/mL, 2.5 μL) is mixed with the test compound (2.5 μL at either 4 μg/mL, 0.4 μg/mL, 0.04 μg/mL, or 0.004 μg/mL) for 2 hr at RT. The FRET peptide (8 μM, 2.5 μL), which is a phosphorylation target for GSK3α, and ATP (40 μM, 2.5 μL) are then added to the enzyme/compound mixture and the resulting mixture incubated for 1 hr. Development reagent (protease, 5 μL) is added for 1 hr prior to detection in a fluorescence microplate reader (Varioskan® Flash, ThermoFisher Scientific).
as §3

[5] = target: p38 MAPKα (Homo sapiens (Human), UniProt Q16539); test: p38 MAPKα enzyme inhibition (FRET, Method 2); assay type: biochemical
Method: as §1
The inhibitory activities of test compounds against the p38 MAPKα isoform (MAPK14: Invitrogen), are evaluated indirectly by determining the level of activation/phosphorylation of the down-stream molecule, MAPKAP-K2. The p38 MAPKα protein (80 ng/mL, 2.5 μL) is mixed with the test compound (2.5 μL of either 4 μg/mL, 0.4 μg/mL, 0.04 μg/mL or 0.004 μg/mL) for 2 hr at RT. […] The mixture is incubated for 1 hr at RT. Development reagent (protease, 5 μL) is added for 1 hr prior to detection in a fluorescence microplate reader (Varioskan® Flash, ThermoFisher Scientific).
as §3

[6] = system: β-catenin; test: (m) Accumulation of β catenin in d-U937 cells; assay type: cell-based, human; settings: Reference Compound at 1 μg/mL defined as 100%
Method: U937 cells, a human monocytic cell line, are differentiated into macrophage-type cells by incubation with PMA; (100 ng/mL) for between 48 to 72 hr. The cells are then incubated with either final concentrations of test compound or vehicle for 18 hr. The induction of β-catenin by the test compounds is stopped by replacing the media with 4% formaldehyde solution. Endogenous peroxide activity is neutralised by incubating with quenching buffer (100 μL, 0.1% sodium azide, 1% H2O2 in PBS with 0.05% Tween-20) for 20 min. The cells are washed with washing buffer (200 μL; PBS containing 0.05% Tween-20) and incubated with blocking solution (200 μL; 5% milk in PBS) for 1 hr, re-washed with washing buffer (200 μL) and then incubated overnight with anti-β-catenin antibody solution (50 μL) in 1% BSA/PBS (BD, Oxford, UK).
After washing with washing buffer (3×200 μL; PBS containing 0.05% Tween-20), cells are incubated with an HRP-conjugated secondary antibody solution (100 μL) in 1% BSA/PBS (Dako, Cambridge, UK) and the resultant signal is determined colourimetrically (OD: 450 nm with a reference wavelength of 655 nm) using TMB substrate (50 μL; R&D Systems, Abingdon, UK). This reaction is stopped by addition of 1N H2SO4 solution (50 μL). Cells are then washed with washing buffer and 2% crystal violet solution (50 μL) is applied for 30 min. After washing with washing buffer (3×200 μL), 1% SDS (100 μL) is added to each well and the plates are shaken lightly for 1 hr prior to measuring the absorbance at 595 nm (Varioskan® Flash, Thermo-Fisher Scientific).
The measured OD450-655 readings are corrected for cell number by dividing the OD450-655 by the OD595 readings.

[7] = system: PBMCs; test: (b) LPS-induced TNFα/IL-8 release in PBMC cells; assay type: cell-based; settings: Homo sapiens, read-out: IC50 for Inhibition of Cytokine Release, IL-8
Method: Peripheral blood mononuclear cells (PBMCs) from healthy subjects are separated from whole blood using a density gradient (Lymphoprep, Axis-Shield Healthcare). The PBMCs are seeded in 96 well plates and treated with compounds at the desired concentration for 2 hours before addition of 1 ng/ml LPS (Escherichia Coli 0111:B4 from Sigma Aldrich) for 24 hours under normal tissue culture conditions (37° C., 5% CO2). The supernatant is harvested for determination of IL-8 and TNFα concentrations by sandwich ELISA (Duo-set, R&D systems) and read on the fluorescence microplate reader (Varioskan® Flash, ThermoFisher Scientific).

[8] = system: kinases; test: KinomeScan selectivity scores / number of hits; assay type: binding
Method: These assays may be conducted by DiscoverX (formerly Ambit; San Diego, Calif.). The percentage inhibition produced by incubation with a test compound may be calculated relative to the non-inhibited control.

Sequence of p38 MAPKα (Q16539 whole entry): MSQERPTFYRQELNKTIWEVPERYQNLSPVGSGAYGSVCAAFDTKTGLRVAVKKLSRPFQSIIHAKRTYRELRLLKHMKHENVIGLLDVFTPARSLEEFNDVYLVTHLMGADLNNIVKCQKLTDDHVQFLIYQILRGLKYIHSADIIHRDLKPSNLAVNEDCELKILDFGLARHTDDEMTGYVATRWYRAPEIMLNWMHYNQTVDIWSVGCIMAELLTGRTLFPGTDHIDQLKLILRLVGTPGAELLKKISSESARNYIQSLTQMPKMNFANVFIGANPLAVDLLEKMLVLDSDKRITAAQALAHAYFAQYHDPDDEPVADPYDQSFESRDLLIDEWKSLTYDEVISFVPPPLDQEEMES
Sequence of c-Src (P12931 whole entry, looked up): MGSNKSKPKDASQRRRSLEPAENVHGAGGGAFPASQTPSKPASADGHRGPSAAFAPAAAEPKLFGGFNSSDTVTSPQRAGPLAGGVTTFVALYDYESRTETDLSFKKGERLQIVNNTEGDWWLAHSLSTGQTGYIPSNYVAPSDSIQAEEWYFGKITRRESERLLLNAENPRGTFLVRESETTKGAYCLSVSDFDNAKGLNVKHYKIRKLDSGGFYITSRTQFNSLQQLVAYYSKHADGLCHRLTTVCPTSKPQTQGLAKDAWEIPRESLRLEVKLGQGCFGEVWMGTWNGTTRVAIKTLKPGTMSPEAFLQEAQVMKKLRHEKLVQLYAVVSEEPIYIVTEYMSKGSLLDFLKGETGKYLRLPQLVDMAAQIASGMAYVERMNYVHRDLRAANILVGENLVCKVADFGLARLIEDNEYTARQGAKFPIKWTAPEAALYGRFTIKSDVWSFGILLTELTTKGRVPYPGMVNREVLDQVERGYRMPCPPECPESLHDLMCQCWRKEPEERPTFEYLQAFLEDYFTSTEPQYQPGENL
Sequence of GSK3α (P49840 whole entry): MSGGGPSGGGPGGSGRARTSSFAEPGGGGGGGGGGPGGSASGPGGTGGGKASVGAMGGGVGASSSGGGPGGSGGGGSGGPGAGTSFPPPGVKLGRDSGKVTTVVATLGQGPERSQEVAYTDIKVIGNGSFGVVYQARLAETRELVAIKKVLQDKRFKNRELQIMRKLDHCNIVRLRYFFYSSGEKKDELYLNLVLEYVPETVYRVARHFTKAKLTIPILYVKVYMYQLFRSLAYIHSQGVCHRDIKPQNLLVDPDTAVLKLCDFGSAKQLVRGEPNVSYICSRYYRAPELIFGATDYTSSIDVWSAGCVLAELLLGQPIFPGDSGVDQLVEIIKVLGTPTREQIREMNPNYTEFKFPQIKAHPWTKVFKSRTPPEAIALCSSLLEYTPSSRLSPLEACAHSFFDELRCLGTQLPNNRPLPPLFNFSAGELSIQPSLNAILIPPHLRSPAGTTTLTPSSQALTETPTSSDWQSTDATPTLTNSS

| Structure (SMILES) | IC50 [1] | IC50 [2] | IC50 [3] | IC50 [4] | IC50 [5] | % β-catenin induction ([6]; 1 μg/mL) | % β-catenin induction ([6]; 5 μg/mL) | % β-catenin induction ([6]; 10 μg/mL) | IC50 [7] | KinomeScan S(1) number of hits ([8]; 50 nM) | KinomeScan S(10) number of hits ([8]; 50 nM) | KinomeScan S(35) number of hits ([8]; 50 nM) | KinomeScan S(1) number of hits ([8]; 500 nM) | KinomeScan S(10) number of hits ([8]; 500 nM) | KinomeScan S(35) number of hits ([8]; 500 nM) |
| --- | --- | --- | --- | --- | --- | --- | --- | --- | --- | --- | --- | --- | --- | --- | --- |
| C#Cc1cc(Nc2nccc(Oc3ccc(NC(=O)Nc4cc(C(C)(C)C)nn4-c4ccc(OC)cc4OC)c4ccccc34)n2)cc(C(=O)NCCOCCOCCOC)c1 [Example 13, 3-((4-((4-(3-(3-(tert-Butyl)-1-(2,4-dimethoxyphenyl)-1H-pyrazol-5-yl)ureido)naphthalen-1-yl)oxy)pyrimidin-2-yl)amino)-5-ethynyl-N-(2-(2-(2-methoxyethoxy)ethoxy)ethyl)-benzamide] | 21 nM | 3.6 nM | 123 nM | 2130 nM | 370 nM | −5% | −2% | −4% | 4.6 nM | – | – | – | – | – | – |
| C#Cc1cc(Nc2nccc(Oc3ccc(NC(=O)Nc4cc(C(C)(C)C)nn4-c4ccc(OC)cc4C)c4ccccc34)n2)cc(C(=O)NCCOCCOCCOC)c1 [Example 17, 3-((4-((4-(3-(3-(tert-Butyl)-1-(4-methoxy-2-methylphenyl)-1H-pyrazol-5-yl)ureido)-naphthalen-1-yl)oxy)pyrimidin-2-yl)amino)-5-ethynyl-N-(2-(2-(2-methoxyethoxy)-ethoxy)ethyl)benzamide] | – | – | – | 12100 nM | – | – | – | – | 5 nM | – | – | – | – | – | – |
| C#Cc1cc(Nc2nccc(Oc3ccc(NC(=O)Nc4cc(C(C)(C)C)nn4-c4cccc(CP(C)(C)=O)c4)c4ccccc34)n2)cc(C(=O)NCCOCCOCCOC)c1 [Example 14, 3-((4-((4-(3-(3-(tert-Butyl)-1-(3-((dimethylphosphoryl)methyl)phenyl)-1H-pyrazol-5-yl)-ureido)naphthalen-1-yl)oxy)pyrimidin-2-yl)amino)-5-ethynyl-N-(2-(2-(2-methoxyethoxy)-ethoxy)ethyl)benzamide] | 4 nM | 1.5 nM | 20 nM | 402 nM | 88 nM | – | – | – | 1.5 nM | – | – | – | – | – | – |
| COCCOCCOCCNC(=O)c1cc(Nc2cc(Oc3ccc(NC(=O)Nc4cc(C(C)(C)C)nn4-c4cccc(CP(C)(C)=O)c4)c4ccccc34)ccn2)cc(OC)c1 [Example 15, 3-((4-((4-(3-(3-(tert-Butyl)-1-(3-((dimethylphosphoryl)methyl)phenyl)-1H-pyrazol-5-yl)-ureido)naphthalen-1-yl)oxy)pyridin-2-yl)amino)-5-methoxy-N-(2-(2-(2-methoxyethoxy)-ethoxy)ethyl)benzamide] | 18 nM | 2 nM | 57 nM | 3200 nM | 34 nM | 4% | 11% | 27% | 1.2 nM | – | – | – | – | – | – |
| COCCOCCOCCNC(=O)c1cc(Nc2nccc(Oc3ccc(NC(=O)Nc4cc(C(C)(C)C)nn4-c4ccc(N(C)C)cc4)c4ccccc34)n2)cc(OC)c1 [Example 16, 3-((4-((4-(3-(3-(tert-Butyl)-1-(4-(dimethylamino)phenyl)-1H-pyrazol-5-yl)ureido)-naphthalen-1-yl)oxy)pyrimidin-2-yl)amino)-5-methoxy-N-(2-(2-(2-methoxyethoxy)-ethoxy)ethyl)benzamide] | 15 nM | – | 27 nM | 646 nM | – | – | – | – | 2.7 nM | – | – | – | – | – | – |
| C#Cc1cc(Nc2nccc(Oc3ccc(NC(=O)Nc4cc(C(C)(C)C)nn4-c4ccc(C)cc4)c4c3CCCC4)n2)cc(C(=O)NCCOCCOCCOC)c1 [Example 12, 3-((4-((4-(3-(3-(tert-Butyl)-1-(p-tolyl)-1H-pyrazol-5-yl)ureido)-5,6,7,8-tetrahydronaphthalen-1-yl)oxy)pyrimidin-2-yl)amino)-5-ethynyl-N-(2-(2-(2-methoxyethoxy)-ethoxy)ethyl)benzamide] | – | 10.9 nM | – | 12500 nM | – | – | – | – | 11.8 nM | – | – | – | – | – | – |
| C#Cc1cc(Nc2cc(Oc3ccc(NC(=O)Nc4cc(C(C)(C)C)nn4-c4ccc(N(C)C)cc4)c4ccccc34)ccn2)cc(C(=O)NCCOCCOCCOC)c1 [Example 11, 3-((4-((4-(3-(3-(tert-Butyl)-1-(4-(dimethylamino)phenyl)-1H-pyrazol-5-yl)ureido)-naphthalen-1-yl)oxy)pyridin-2-yl)amino)-5-ethynyl-N-(2-(2-(2-methoxyethoxy)ethoxy)-ethyl)benzamide] | > 1210 nM | 6.2 nM | > 1210 nM | 12100 nM | 766 nM | – | – | – | 4.3 nM | – | – | – | – | – | – |
| COCC(=O)Nc1cc(Oc2ccc(NC(=O)Nc3cc(C(C)(C)C)nn3-c3ccc(C)cc3)c3ccccc23)ccn1 [Reference Compound, N-(4-(4-(3-(3-tert-butyl-1-p-tolyl-1H-pyrazol-5-yl)ureido)naphthalen-1-yloxy)pyridin-2-yl)-2-methoxyacetamide, reference compound] | – | – | – | – | – | 100% | – | – | – | 7 | 32 | 67 | 45 | 105 | 143 |
